According to patent EP0197013A1, “Substituted benzimidazoles for the manufacture of a medicament for treatment of intestinal inflammatory diseases” (Aktiebolaget Hässle, priority 1985, dated 1986):

Molecular target: T1, colon K^+-ATPase (Oryctolagus cuniculus, UniProt Q9TV52)
T1 construct: Apical brush-border membranes were prepared from rabbit descending colon epithelium; from tissue; host or cells: rabbit descending colon epithelium, apical brush-border membrane fraction (Percoll gradient)
Assay: Inhibition of colon K+-ATPase by acid decomposed omeprazole (Pi liberated from ATP, apical brush-border membranes of descending colon)
Format: biochemical, rabbit
Parameters: activity of the colonic K^+-ATPase enzyme: dose or concentration left out as unconfirmed
Description: In order to evaluate the inhibitory effect on colonic K^+-ATPase of the substituted benzimidazoles with the general formula I, we have tested one compound, namely omeprazole on an enzyme preparation from the descending colon of the rabbit (cf. below).
In the case of omeprazole the most efficient way to form the active degradation products is to decompose it in acid solution. Thus, omeprazole was decomposed in acid before it was added to the enzyme.
In order to isolate and characterize the ouabain insensitive potassium- stimulated ATPase from rabbit descending colon the following preparation was made.
Apical brush-border membranes were prepared from rabbit descending colon epithelium, by the method of Gustin M.C., and Goodman D.B.P., J. Biol. Chem. 256, 10651-10656 (1981), with some modifications.
Two albino male rabbits, weighing 2-3 kg, were killed by injection of mebumal into the ear vein. A section of colon, 30-35 cm in length, measured from rectum, was removed, rinsed free of its content with icecold 0.15 M NaCl and everted over a glassrod. The tissue was then divided in two pieces. These everted segments were tied at one end, filled with an icecold buffer containing 30 mM NaCl, 5mM Na3EDTA and 8 mM Hepes/Tris pH 7.6, using a 20 ml syringe without a needle, until they became distended, at which point the other end was tied. The intestines were transferred to a 500 ml centrifuge tube containing the same cold pH 7.6 buffer. The tube was placed in an icebox, which was shaken for 2 hours at 260 osc./min. Then the incubation medium was filtered through a nylon net of 200 µm mesh, to remove debris.
Sedimentation of epithelial cells was performed by centrifugation at 500xg for 10 minutes at 4°C, in a Beckman J2-21 centrifuge. The pelleted cells were resuspended in 250 ml of a solution containing 1mM Na3EDTA, adjusted to pH 8.3 with HC1 at 4°C, just before use. The cells were then disrupted, by a 28 second homogenization in a Waring Blendor. The resulting homogenate was centrifuged for 10 minutes at 4°C with a centrifugal force of 750xg in a Beckman J2-21 centrifuge with a JA-17 rotor, in order to sediment brush-borders. Pellets were combined, resuspended in 40 ml of the medium containing 1mM Na3EDTA and recentrifuged as described above. The brush-border pellet (P2) was resuspended in 33.3 ml of the same medium, 2.7 ml density gradient medium (Percoll, Pharmacia) was added by mixing. The Percoll medium was allowed to generate a density gradient during 22 minutes at 40 OOOxg in a Beckman J2-21 centrifuge, in which the membranes sedimented into bands. Nine fractions (Gl-G9) of 4 ml each, were carefully removed from the gradient with a Pasteur-pipette. The fractions were subjected to centrifugation in a Kontron TGA-65 centrifuge with a TST 60 swing-out rotor at 50 000 rpm for 45 minutes, to sediment the Percoll. The material collected on the top of the Percoll pellet was homogenized by a glass-teflon homogenizer with 5-10 up-down strokes at about 1500 rpm.
ATPase activity was determined as the amount of Pi (free phosphate) liberated from ATP by the enzyme per unit of time.
The assay medium contained 2mM ATP, 2mM MgCl2, 18.4 mM Pipes/Tris pH 7.4 and membrane protein in the presence or absence of 10 mM KC1 in a final volume of 1 ml. In some experiments, 10^-5 M of the specific Na^+,K^+-ATPase inhibitor ouabain was present. The enzyme Na^+,K^+-ATPase is responsible for the active transport of Na^+ out from the cell into the plasma as well as for the transport of K^+ into the cell from the plasma. Unless otherwise mentioned, the preparation was preincubated with ouabain on ice for 10 minutes before start of the reaction, which was initiated with ATP, mixed and incubated for suitable time at 37°C. The reaction was stopped by the addition of 1 ml icecold 12 per cent perchloric acid, containing 3.6 per cent ammoniummolybdate. […]

T1 sequence (Q9TV52 whole entry, other chains not shown): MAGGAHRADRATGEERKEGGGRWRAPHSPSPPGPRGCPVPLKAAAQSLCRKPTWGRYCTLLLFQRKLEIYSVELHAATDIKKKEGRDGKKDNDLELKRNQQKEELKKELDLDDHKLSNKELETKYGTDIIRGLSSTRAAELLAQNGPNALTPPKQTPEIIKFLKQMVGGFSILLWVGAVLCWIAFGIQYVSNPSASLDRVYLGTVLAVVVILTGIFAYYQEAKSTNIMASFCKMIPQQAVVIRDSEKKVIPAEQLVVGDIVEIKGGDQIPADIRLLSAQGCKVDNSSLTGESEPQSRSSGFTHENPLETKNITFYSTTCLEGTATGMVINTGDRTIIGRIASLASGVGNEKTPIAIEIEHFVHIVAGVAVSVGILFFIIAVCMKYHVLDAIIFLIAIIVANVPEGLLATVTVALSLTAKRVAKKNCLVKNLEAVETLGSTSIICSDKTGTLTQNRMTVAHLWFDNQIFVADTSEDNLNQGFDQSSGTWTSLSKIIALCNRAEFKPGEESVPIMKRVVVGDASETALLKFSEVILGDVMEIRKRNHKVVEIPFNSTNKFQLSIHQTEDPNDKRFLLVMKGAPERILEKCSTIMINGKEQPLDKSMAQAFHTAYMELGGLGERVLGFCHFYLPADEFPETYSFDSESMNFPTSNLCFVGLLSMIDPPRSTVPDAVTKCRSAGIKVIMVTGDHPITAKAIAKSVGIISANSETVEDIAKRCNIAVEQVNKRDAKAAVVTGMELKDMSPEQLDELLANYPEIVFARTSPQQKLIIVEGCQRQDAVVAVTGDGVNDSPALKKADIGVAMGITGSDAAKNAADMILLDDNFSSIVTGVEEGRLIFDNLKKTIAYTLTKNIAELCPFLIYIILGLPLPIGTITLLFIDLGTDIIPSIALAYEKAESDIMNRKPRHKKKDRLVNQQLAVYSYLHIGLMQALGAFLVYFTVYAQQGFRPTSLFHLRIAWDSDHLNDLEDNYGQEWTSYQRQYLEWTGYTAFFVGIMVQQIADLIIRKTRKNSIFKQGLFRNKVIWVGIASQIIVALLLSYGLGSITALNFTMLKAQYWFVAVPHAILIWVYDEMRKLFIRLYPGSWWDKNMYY

COc1ccc2[nH]c([S+]([O-])Cc3ncc(C)c(OC)c3C)nc2c1 (stereo not drawn) [omeprazole]
remaining activity at 1 µM (Initial concentration of omeprazole in the break-down mixture 1.0 µM, omeprazole decomposed at pH 5.0, 120 minutes, 37°C, membranes incubated 10 minutes at 37°C, read-out: Remaining enzyme activity % Mean value ± S.D.): 100 ± 5.9% | remaining activity at 2.5 µM (Initial concentration of omeprazole in the break-down mixture 2.5 µM, omeprazole decomposed at pH 5.0, 120 minutes, 37°C, membranes incubated 10 minutes at 37°C, read-out: Remaining enzyme activity % Mean value ± S.D.): 72.4 ± 6% | remaining activity at 5 µM (Initial concentration of omeprazole in the break-down mixture 5.0 µM, omeprazole decomposed at pH 5.0, 120 minutes, 37°C, membranes incubated 10 minutes at 37°C, read-out: Remaining enzyme activity % Mean value ± S.D.): 31.9 ± 6.7% | remaining activity at 7.5 µM (Initial concentration of omeprazole in the break-down mixture 7.5 µM, omeprazole decomposed at pH 5.0, 120 minutes, 37°C, membranes incubated 10 minutes at 37°C, read-out: Remaining enzyme activity % Mean value ± S.D.): 18.6 ± 5.5% | remaining activity at 10 µM (Initial concentration of omeprazole in the break-down mixture 10.0 µM, omeprazole decomposed at pH 5.0, 120 minutes, 37°C, membranes incubated 10 minutes at 37°C, read-out: Remaining enzyme activity % Mean value ± S.D.): 5.2 ± 3.2% | activity of the colonic K^+-ATPase enzyme (mixture (acid decomposed omeprazole)): almost completely inhibits
